Experimental data as given in PubChem BioAssay AID2060622 (Molecular Pharmacology Branch, DTP, NCI, 2025).

Tested on: 242566-281-R-J2-PDC complex spheroid viability
Assay: Anticancer human tumor 242566-281-R-J2-PDC patient-derived pancreatic carcinoma cell line growth inhibition [CLK]
Conditions: for IC50: curve of first compound; for viability, T/C: stronger effect = lower value; active = viability on the fitted dose curve at most 10% of control; inactive = the rest
Method in brief: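 Multi-cell-type spheroids combined patient-derived tumor cells with HUVEC endothelial cells and human mesenchymal stem cells. Paired agents were dosed in half-log steps down from about clinical Cmax, or from 10 microM where Cmax was unknown.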
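Note: spheroids exposed to compounds for 7 days before readout.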
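Throughout, for viability, T/C: 100% = DMSO vehicle control wells.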

CC(CO)NC(=O)c1cc(-c2ccc(Cl)cc2)nn(-c2cnn(C)c2)c1=O (configuration not stated) + CN1CCN(c2cc(C(=O)Nc3cc4cc(-c5cnn(C)c5)ccc4cn3)ccn2)CC1
active: viability, T/C (second compound 1 µM, first compound 0.0316 µM) 4.91% | viability, T/C (second compound 1 µM, first compound 0.1 µM) 5.11% | viability, T/C (second compound 1 µM, first compound 0.316 µM) 5.14% | viability, T/C (second compound 1 µM, first compound 1 µM) 5.04% | viability, T/C (second compound 1 µM, first compound 3.16 µM) 4.52% | viability, T/C (second compound 1 µM, first compound 10 µM) 4.45% | viability, T/C (second compound 3.16 µM, first compound 0.0316 µM) 6.35% | viability, T/C (second compound 3.16 µM, first compound 0.1 µM) 7.68% | viability, T/C (second compound 3.16 µM, first compound 0.316 µM) 8.66% | viability, T/C (second compound 3.16 µM, first compound 1 µM) 7.21% | viability, T/C (second compound 3.16 µM, first compound 3.16 µM) 7.5% | viability, T/C (second compound 3.16 µM, first compound 10 µM) 6.89% | viability, T/C (second compound 10 µM, first compound 0.0316 µM) 2.09% | viability, T/C (second compound 10 µM, first compound 0.1 µM) 2.51% | viability, T/C (second compound 10 µM, first compound 0.316 µM) 2.07% | viability, T/C (second compound 10 µM, first compound 1 µM) 2.91% | viability, T/C (second compound 10 µM, first compound 3.16 µM) 2.05% | viability, T/C (second compound 10 µM, first compound 10 µM) 0.93%
< 31.6 nM: IC50 (second compound 0.316 µM) | IC50 (second compound 1 µM) | IC50 (second compound 3.16 µM) | IC50 (second compound 10 µM)
> 10000 nM: IC50 (second compound 0.0316 µM) | IC50 (second compound 0.1 µM)
inactive: viability, T/C (second compound 0.0316 µM, first compound 0.0316 µM) 95.6% | viability, T/C (second compound 0.0316 µM, first compound 0.1 µM) 117% | viability, T/C (second compound 0.0316 µM, first compound 0.316 µM) 129% | viability, T/C (second compound 0.0316 µM, first compound 1 µM) 106% | viability, T/C (second compound 0.0316 µM, first compound 3.16 µM) 101% | viability, T/C (second compound 0.0316 µM, first compound 10 µM) 93.6% | viability, T/C (second compound 0.1 µM, first compound 0.0316 µM) 93.5% | viability, T/C (second compound 0.1 µM, first compound 0.1 µM) 104% | viability, T/C (second compound 0.1 µM, first compound 0.316 µM) 87.3% | viability, T/C (second compound 0.1 µM, first compound 1 µM) 94% | viability, T/C (second compound 0.1 µM, first compound 3.16 µM) 101% | viability, T/C (second compound 0.1 µM, first compound 10 µM) 72.3% | viability, T/C (second compound 0.316 µM, first compound 0.0316 µM) 38.2% | viability, T/C (second compound 0.316 µM, first compound 0.1 µM) 43% | viability, T/C (second compound 0.316 µM, first compound 0.316 µM) 39.9% | viability, T/C (second compound 0.316 µM, first compound 1 µM) 36.5% | viability, T/C (second compound 0.316 µM, first compound 3.16 µM) 41.5% | viability, T/C (second compound 0.316 µM, first compound 10 µM) 37.6%
